This note sets out measurements from ChEMBL document CHEMBL1177754, “Onionin A from Allium cepa inhibits macrophage activation” (J Nat Prod, 2010).

In the experiment the test system is Macrophage. In words: Inhibition of CD163 expression in human monocyte-derived macrophages at 30 uM for 24 hrs treated before IL10 challenge for 2 days by cell-ELISA. The experiment is classed as functional, cell-based. A general note: An ELISA detects its analyte on a solid surface through an enzyme-linked reagent.

The source made the active and inactive calls. The rule behind the calls is not given here.

As for `C/C=C/[C@H]1[C@H](C)[C@@H](C)[C@@H]([SH+][O-])[S+]1[O-]` (stereo partly specified), the result was Active.
